Non-standard residues stand in square brackets, D forms with d. Residues, ends and D or L forms follow the SMILES beside them. No end group written: not given here.
Columns and labels:
[1] = system: rat collagen-arthritis model; experiment: Arthritis suppressing effects on rat collagen-arthritis model; assay type: in vivo, rats
Protocol: A rat collagen-arthritis model was used to examine arthritis suppressing effects of a peptide, referred to as peptide R13.
Female Lewis rats were primed with 500 μg of type II bovine-derived collagen and boosted with 100 μg of the same collagen at 7 and 14 days post priming, to induce collagen arthritis. Peptide R13, a scramble peptide (dYdPdYGdFdL), or methotrexate was administered once a day for a period of 25 consecutive days from 12 days after arthritis was fully developed, and arthritis suppressing effect was examined in terms of clinical score. Methotrexate was administered at a dose of 0.15 mg/kg as a control drug.
The required amount was calculated for each peptide, based on the animal weight. Physiological saline was gradually added to prepare suspensions, to make concentrations of 100 and 10 mg/ml.
The clinical score of each limb of the extremities in all cases was observed every third day from day 12, on which arthritis was developed, up to day 36, with day 0 being the day of priming with type II bovine-derived collagen. Observations were according to the following criteria, with the total score for the extremities being set to a maximum of 12. […]

[2] = system: binding between human C1q protein and human immunoglobulin (IgG); experiment: Inhibition of binding between C1q and immunoglobulin (C1q spotted on nitrocellulose membrane, ALP-labeled IgG); details: peptide concentration 500 μg/ml, 400 ng human C1q per spot
Description: Peptides were synthesized by GL Biochem (Shanghai), which have the following amino acid sequences: the amino acid sequence depicted in SEQ ID NO: 2 (peptide R2); a shorter amino acid sequence than this peptide, PGLYYF (SEQ ID NO: 1) (peptide R1); and amino acid sequences including the amino acid sequence depicted in SEQ ID NO: 2, SGKFTCKVPGLYYFT (SEQ ID NO: 3) (peptide R3), FTCKVPGLYYFTYHA (SEQ ID NO: 4) (peptide R4), STGKFTCKVPGLYYF (SEQ ID NO: 5) (peptide R5), and CKVPGLYYFVYHASH (SEQ ID NO: 7) (peptide R6). Each peptide was dissolved in DMSO to make a concentration of 10 mg/ml and stored.
Human C1q protein (Carbiochem) was dissolved in 10 mM HEPES, 300 mM NaCl, 40% glycerol (pH 7.2) to prepare a 200 μg/ml solution of human C1q protein. The solution of human C1q protein was spotted at a volume of 2 μl (400 ng) per spot onto a nitrocellulose membrane of a size of 5 mm by 15 mm (Hybond C; Amersham), which was then air-dried at room temperature for about one hour. The nitrocellulose membrane was soaked in TBS, incubated for 5 minutes, and blocked at room temperature for one hour using TBS (20 mM Tris-HCl, pH 7.5, 150 mM NaCl) containing 5% of a blocking agent (Amersham ECL blocking reagent; GE Healthcare). […]

[3] = system: Monoclonal antibody cocktail-induced arthritis mice; experiment: Arthritis suppressing effects on arthritis-induced mice, Part 4; assay type: in vivo; details: intraperitoneal 100 mg/kg once a day from day 4; methotrexate 0.1 mg/kg
Protocol: Monoclonal antibody cocktail-induced arthritis mice were used to examine arthritis suppressing effects of peptides which are indicated as R13 in the section (3) in Example 2 and as R19 and R21 in the section (4) in Example 2. Arthritis was caused by intravenous administration of 2 mg/mouse of an arthritis-inducing monoclonal antibody cocktail and three days later, intraperitoneal administration of 50 μg/mouse of LPS. The peptides […] days from four days after the administration of the arthritis-inducing monoclonal antibody cocktail, and arthritis suppressing effect was examined in terms of clinical score and hind-limb volume determination.
The required amount was calculated for each peptide, based on the animal weight. […]
Measurement of body weight of animals was made on days 0, 3, 6, 9, 12, and 14 during the study period, with day 0 being the day of administration of the arthritis-inducing monoclonal antibody cocktail. Observation of general condition was made on a daily basis. […]
Results of examinations were expressed by mean value±standard error and analyzed using EXSAS (Version 7.1.6, Arm Systex Co., Ltd.). […] Quantitative data, such as body weights and leg volumes, were subjected to Bartlett's test, followed by Dunnett's multiple comparison test when the variance was uniform or Steel's multiple comparison test when the variance was not uniform.

[4] = system: type III allergic (Arthus) reaction-induced rats; experiment: Immune-complex disease suppression in type III allergic (Arthus) reaction-induced rats, Part 2; assay type: in vivo
Protocol: Using forty-five 7-week-old male Slc:Wistar rats, examinations were made on peptides R13 and R19, in two series of examinations, each using a different method of administration (intraperitoneal administration and tail vein administration). Acclimation was carried out by giving normal solid chow CRF-1 for a period of 6 or 8 days. The back of the animals was shaved on the day prior to administration, and a mixed solution of OVA and Evans blue dye was administered into the tail vein on the day of administration. Each peptide solution was administered intraperitoneally or into the tail vein 30 minutes or 50 minutes after the administration of the mixed solution of OVA and Evans blue dye, respectively. For intracutaneous administration of an anti-OVA solution, […] was intracutaneously administered in the back of animals at a dose of 0.1 ml/site 30 minutes or 10 minutes after the administration of the tested substance in the case of intraperitoneal or intravenous administration, respectively, so as to generate a local Arthus reaction. After the reaction was allowed to be generated for 4 hours, the animals were euthanized, the blood was removed thoroughly, and then the dorsal skin was exfoliated. The Arthus reaction sites on the exfoliated skin were punched out, and the Evans blue dye was extracted from the punched skin overnight. The amount of dye leakage was quantified by measuring absorbance for the Evans blue dye with a spectrophotometer and using a calibration curve.
A suspension was prepared by placing a predetermined amount of hydrocortisone into a mortar, grinding it with pestle, and then adding physiological saline to make the final concentration of 10 mg/ml.
A predetermined amount of each peptide (peptides R13 and R19) was dissolved in physiological saline to make a 20 mg/ml solution. A 2 mg/ml solution was prepared by diluting the 20 mg/ml solution 10-fold with physiological saline. A 5 mg/ml solution was prepared by dissolving each peptide in a predetermined amount in physiological saline to make a prepared solution.
A mixed solution of OVA and Evans blue dye was administered into the tail vein at a dose of 2 ml/kg. Each peptide solution was administered intraperitoneally or into the tail vein 30 minutes or 50 minutes after the administration of the mixed solution of OVA and Evans blue dye, respectively. […]
Several cuttings were made in the skin strips that were punched out with a punch. […] The amount of dye leakage was calculated from a calibration curve of known amounts of the dye.
The mean value (mean)±standard deviation (SD) for each group was calculated with body-weight measurements and amounts of dye leakage. […]

[5] = tail vein administration, 10 mg/kg

CC(C)C[C@@H](NC(=O)CNC(=O)[C@H]1CCCN1)C(=O)N[C@H](Cc1ccc(O)cc1)C(=O)N[C@H](Cc1ccc(O)cc1)C(=O)N[C@H](Cc1ccccc1)C(=O)O [R13, dPGdLdYdYdF] (H-[dP]G[dL][dY][dY][dF]-OH)
abnormalities in general condition and effects on body weight ([1]; 100 and 10 mg/kg): abnormalities in general condition and effects on body weight were not observed

CKAPGLYYF (Immunoglobulin binding peptide) [R10]
inhibition of the binding between C1q and immunoglobulin [2]: inhibit the binding

dSdKdVdPGdLdYdYdF ([dS][dK][dV][dP]G[dL][dY][dY][dF]) [R19]
arthritis-suppressing effect (clinical score) compared with methotrexate [3]: arthritis-suppressing effect comparable to or greater than that of methotrexate | suppression (decrease of dye leakage) compared to negative control ([4]; intraperitoneal administration, 100 mg/kg): 50% | suppression effect (dye leakage) compared to negative control ([4]; intraperitoneal administration, 10 or 100 mg/kg): suppressed | suppression (decrease of dye leakage) compared to negative control [4, 5]: about 50% | suppression effect (dye leakage) compared to negative control [4, 5]: suppressed

dYdPdYGdFdL [scramble peptide, reference compound]
suppression effect (clinical score) ([1]; negative control peptide, once a day, 25 consecutive days): did not exhibit any suppression effects

STAKFTCKVPGLYYF (Immunoglobulin binding peptide) [R11]
inhibition of the binding between C1q and immunoglobulin [2]: inhibit the binding

From US20110306554A1, “PEPTIDE CAPABLE OF BINDING TO IMMUNOGLOBULIN” (priority 2009, published 2011)
